In PMC11912270, “Synthesis and SAR Studies of Acyl-Thiourea Platinum(II) Complexes Yield Analogs with Dual-Stage Antiplasmodium Activity” (ACS Medicinal Chemistry Letters, 2025):
Values joined by “and” are separate entries in the source; they are usually repeats but may differ in a detail not shown here. Identical values can stand only once.

Tests used:
[1] = Kinetic solubility by HPLC (pH 6.5); conditions: pH 6.5
Description: 1.7. Kinetic solubility by HPLC (pH 6.5)
Solubility was measured at pH 6.5 using an adapted miniaturized shake-flask method, in 96-well plate format.4,5 Briefly, 4 µL of a 10 mM stock in DMSO was added to a 96-well plate and evaporated using a GeneVac system. Phosphate buffer pH 6.5 was then added to the wells […]
At the end of this incubation, the […]
in the analysis plate. Analysis was then performed by HPLC-DAD and the solubility of each sample was determined from the corresponding calibration curve. […]

[2] = Cyclic voltammetry; assay type: physicochemical; conditions: 0.1 V/s; for Epa1: anodic peak potential; for Epc1: cathodic peak potential
Excerpt: It is known that Fe^2+/Fe^3+ redox chemistry has an important role in the bioactivity of ferrocene derivatives.[33] The production of reactive oxygen species (ROS) is one of the modes of action of ferroquine and other ferrocene derivatives[34] and is linked to the correlation between their bioactivity and electrochemical behavior. We determined whether a similar correlation could be made for the mixed-ligand platinum(II) complexes reported herein given that metal centers have the potential to be oxidized and reduced. The electrochemistry of the complexes was studied using cyclic voltammetry (CV), which uses a triangular potential waveform. The CV experiments were performed in either dry MeOH or DMF containing tetrabutylammonium chloride (TBACl) as the supporting electrolyte. The working electrode was glassy carbon with a platinum wire as the counter electrode and Ag/AgCl as the reference. The anodic (Epa) and cathodic (Epc) peak potentials at 0.1 V/s and half-wave potentials (E1/2) were measured (Table 3). All of the tested complexes undergo reversible one-electron Pt^2+/Pt^+ reductions (Figures S38–S46). Complexes C2, C4, and C8 undergo a second nonreversible reduction (Epc2), which is most likely ligand-based and linked to reductions of the substituent on the bpy. Looking at SAR2, the more electron-withdrawing the substituent, the […] the E1/2 (V vs Fe/Fe^+) value was. This trend was expected, as a more electron-withdrawing substituent reduces the electron density around the metal center, making it easier for the metal to be reduced from Pt^2+ to Pt^+. […] This is also the case for other bpy-containing platinum(II) complexes that only undergo reductions.[35],[36] […]
For the cyclic voltammetry experiments a solution of the test compound (1 x 10-3) in DMSO (3 mL) is added to the electrolyte solution (0.1 M tetrabutylammonium chloride (TBACl) in DMSO). The electrochemical measurements were obtained using a Basi Epsilon Eclipse Electrochemical Analyzer Potentiostat and the CV graphs were generated using Excel. The working electrode was glassy carbon (GC) with platinum wire as the counter electrode (CE) and Ag/AgCl as the reference. […]

[3] = test system: late-stage gametocytes (NF54-PfS16-GFP-Luc); assay: Luciferase reporter assay, late-stage gametocytes; assay type: cell-based, Plasmodium falciparum; conditions: for LG (% inhibition) 1 µM / LG (% inhibition) 5 µM: single biological repeat; for IC50: late (IV/V) gametocytes, luciferase, 48 h, read-out: LG IC50
Description: (§1) All the complexes were tested for their early- and late-stage gametocyte activity in a dual-point assay (1 μM and 5 μM). […]
(§2) 1.5.In vitro activity against gametocyte stages
(§3) PfNF54 gametocytes were prepared and isolated according to the method reported by Reader […]
(§4) The in vitro gametocyte activity of the synthesized complexes was determined using a luciferase reporter line-based assay.
(§5) NF54-PfS16-GFP-Luc parasites were used for the stage-specific assessment of gametocytocidal activity. Early-stage gametocyte (stage I-III) experiments were performed on day 5 (representing >90% of early-stage and late-stage gametocyte (stages IV/V) experiments were performed on day 10. In each experiment, assays were set up with the use of 2-3% […]
(§6) Luciferase activity was determined in 30 µL parasite lysates by adding luciferin substrate (30 µL) (Promega Luciferase Assay System) at room temperature. […]

[4] = test system: ABS parasites; assay: Dual point activity against ABS parasites; assay type: cell-based, Plasmodium falciparum; conditions: single biological repeat
Excerpt: Table S2: Dual point activity of platinum(II) complexes against ABS parasites, early- and late-
stage gametocytes. Values are averaged from technical triplicates performed for a single

[5] = test system: early-stage gametocytes (NF54-PfS16-GFP-Luc); assay: Luciferase reporter assay, early-stage gametocytes; assay type: cell-based, Plasmodium falciparum; conditions: for EG (% inhibition) 1 µM / EG (% inhibition) 5 µM: single biological repeat; for IC50: early (II/III) gametocytes, luciferase, 48 h, read-out: EG IC50
Description: as §1, §2, §3, §4, §5, §6

[6] = test system: PfNF54 ABS parasites; assay: SYBR Green I-based proliferative assay, PfNF54 ABS parasites; assay type: cell-based, Plasmodium falciparum; conditions: for IC50: ABS, SYBR Green I, 96 h, mean ± S.E., N = 3 (no S.E.: N = 1)
Description: (§7) The parasites were incubated under drug […]
(§8) incubation, parasite survival was determined by adding equal volumes of parasite suspension (100 µL) and SYBR Green I lysis buffer (0.2% µL/mL of 10 000x SYBR Green I, 20 mM Tris-HCl, pH 7.5, 5 mM EDTA, 0.008% saponin (w/v) and 0.08% Triton x-100). This was incubated for 1 hour at room temperature in the dark. […]

[7] = test system: Chinese hamster ovary (CHO) cell line; assay: MTT cytotoxicity assay; assay type: cell-based; conditions: cytotoxicity, MTT, 48 h; N, n = 1, 3; read-out: CHO IC50
Description: 1.6.In vitro cytotoxicity assay
A 3-(4,5-dimethylthiazol-2-yl)-2,5-diphenyltetrazoliumbromide (MTT) assay was used to screen the metal complexes against the mammalian Chinese hamster ovarian (CHO) cell line.
A stock solution of each compound (2 mg/mL) in DMSO was prepared and kept at -20 °C until needed. Emetine was used as a reference drug. A starting concentration of 100 µg/mL was used, and serially diluted ten-fold using a complete medium to give the lowest concentration of 0.001 µg/mL (6 dilutions). The plates containing the CHO cells under drug pressure were […]
Plates containing the drug and cell suspension were developed by adding 25 μL of sterile MTT (Thermo Fisher Scientific) (25 µL) to each well, followed by 4 h […]
of incubation at room temperature in the dark. The plates were then centrifuged, and the supernatant was removed via aspiration. Sample absorbance was read at a wavelength of 540 […]
analysis via GraphPad Prism v.4.0 software. The IC50 values were determined for each compound were determined from the dose-response curves. […]

[8] = test system: PfK1 ABS parasites; assay type: cell-based, Plasmodium falciparum; conditions: for IC50: ABS, SYBR Green I, 96 h, mean ± S.E.; for RI (resistance index): RI = PfK1 IC50/PfNF54 IC50
Description: as §7, §8

| Structure (SMILES) | Epa1 [2] | Epc1 [2] | LG (% inhibition) 1 µM [3] [% inhibition] | LG (% inhibition) 5 µM [3] [% inhibition] | IC50 [3] [µM] | ABS (% inhibition) 1 µM [4] [% inhibition] | ABS (% inhibition) 5 µM [4] [% inhibition] | EG (% inhibition) 1 µM [5] [% inhibition] | EG (% inhibition) 5 µM [5] [% inhibition] | IC50 [5] [µM] | IC50 [6] [µM] | IC50 [7] [µM] | other results |
| --- | --- | --- | --- | --- | --- | --- | --- | --- | --- | --- | --- | --- | --- |
| CC(C)(C)c1cc[n+]2c(c1)-c1cc(C(C)(C)C)cc[n+]1[Pt-2]21[O+]=C(c2ccccc2)N=C(N(CCO)CCO)[S]1.[Cl-] [C1] | –1.233 V | –1.127 V |  |  |  |  |  |  |  |  |  |  | Aqueous solubility pH 6.5 ([1]; kinetic, HPLC): 95 μM |
| OCCN(CCO)C1=NC(c2ccccc2)=[O+][Pt-2]2([S]1)[n+]1ccc(O)cc1-c1cc(O)cc[n+]12.[Cl-] [C5] |  |  | 0.0 | 0.5 | > 20 | 0.0 | 11.0 | 0.0 | 0.0 | > 20 | > 5 | > 50 |  |
| OCCN(CCO)C1=NC(c2ccccc2)=[O+][Pt-2]2([S]1)[n+]1ccc(Cl)cc1-c1cc(Cl)cc[n+]12.[Cl-] [C7] |  |  | 0.0 | 0.4 | > 20 | 2.7 | 57.3 | 2.2 | 4.1 | > 20 | > 5 | > 50 |  |
| CNC(=O)c1cc[n+]2c(c1)-c1cc(C(=O)NC)cc[n+]1[Pt-2]21[O+]=C(c2ccccc2)N=C(N(CCO)CCO)[S]1.[Cl-] [C9] |  |  | 0.0 | 2.4 | > 20 | 0.0 | 24.5 | 0.0 | 4.5 | > 20 | > 5 | > 50 |  |
| Cc1ccc(C2=[O+][Pt-2]3([S]C(N(CCO)CCO)=N2)[n+]2ccc(C(C)(C)C)cc2-c2cc(C(C)(C)C)cc[n+]23)cc1.[Cl-] [C11] | –1.239 V | –1.128 V |  |  |  |  |  |  |  |  |  |  |  |
| COc1ccc(C2=[O+][Pt-2]3([S]C(N(CCO)CCO)=N2)[n+]2ccc(C(C)(C)C)cc2-c2cc(C(C)(C)C)cc[n+]23)cc1.[Cl-] [C12] | –1.247 V | –1.133 V |  |  |  |  |  |  |  |  |  |  |  |
| CC(C)(C)c1ccnc(-c2cc(C(C)(C)C)ccn2)c1.OCCN(CCO)C(=S)N=C([O][Pt+])c1ccc(Cl)cc1.[Cl-] [C13] | –1.233 V | –1.119 V |  |  |  |  |  |  |  |  |  |  |  |
| Cc1ccc(-c2ccc(C)cn2)nc1.OCCN(CCO)C(=S)N=C([O][Pt+])c1ccccc1.[Cl-] [C14] |  |  | 39.4 | 56.6 |  |  |  | 0.0 | 0.0 |  | 0.241 ± 0.04 | > 50 | IC50 [8]: 0.886 ± 0.059 µM; RI (resistance index) [8]: 3.7; fold improvement in PfNF54 activity compared to C2 ([6]; vs 4,4'-dimethyl complex C2): 5 fold and 6 fold |
| Cc1cccc(-c2cccc(C)n2)n1.OCCN(CCO)C(=S)N=C([O][Pt+])c1ccccc1.[Cl-] [C15] |  |  | 54.8 | 84.0 | 1.41 | 0.0 | 89.6 | 2.8 | 43.9 | 9.51 | 2.91 | 5 | IC50 [8]: 2.76 µM; RI (resistance index) [8]: 0.9; fold decrease in PfNF54 activity compared to C2 ([6]; vs 4,4'-dimethyl complex C2): 2 fold |
| COC(=O)[C@H]1[C@H]2C[C@@H]3c4[nH]c5cc(OC)ccc5c4CCN3C[C@H]2C[C@@H](OC(=O)c2cc(OC)c(OC)c(OC)c2)[C@@H]1OC [Reserpine, reference compound] |  |  |  |  |  |  |  |  |  |  |  |  | solubility at 24 h ([1]; phosphate buffer): < 5 µM |
